The numbers were not newly measured in US4717569A, “Unit dosage form of sparingly soluble medicaments” (Sterling Drug Inc., priority 1984, dated 1988), which cites them from elsewhere.

The structures appear in SMILES notation.

One data set has as its system pituitary gonadotrophins. The following applies: in patients, background.
For data set [1] the following is noted: in patients, background.
The conditions of data set [2]: pH 6.0-7.0, intestinal juices.

In the case of `C#C[C@]1(O)CC[C@H]2[C@@H]3CCC4=Cc5oncc5C[C@]4(C)[C@H]3CC[C@@]21C` [Compound A, 17α-pregna-2,4-diene-20-yno[2,3-d]isoxazol-17-ol], in the data set on pituitary gonadotrophins, the “effect on pituitary gonadotrophins” value is listed as “inhibits the synthesis or release of pituitary gonadotrophins”. For the same compound, the “oestrogenic or progestational activity” value in data set [1] was “without exhibiting oestrogenic or progestational activity”. For the compound `OCCN(CCO)c1nc(N2CCCCC2)c2nc(N(CCO)CCO)nc(N3CCCCC3)c2n1` [dipyridamole], the “solubility at intestinal pH” value in data set [2] is on record as “insoluble”.
